# According to US6241963A, “Dopamine and serotonin transporter ligands and imaging agents” (priority 1996, dated 2001):
# “And” between values parts separate entries of the source, which are not always exact repeats. Equal entries are not always repeated. Where two headings read alike, the source gives them in different places.
# Key:
# [1] = Partition coefficient between 1-octanol (n-octanol) and buffer; format: physicochemical
# Protocol: (§1) Partition coefficients were measured by mixing each Tc-99m compound with 3 g each of 1-octanol and buffer (pH 7.0 or 7.4, 0.1 M phosphate) in a test tube. The test tube was vortexed for 3 minutes at room temperature, then centrifuged for 5 minutes. Two weighed samples (0.5 g each) from the 1-octanol and buffer layers were counted in a well counter. The partition coefficient was determined by calculating the ratio of cpm/g of octanol to that of buffer. Samples from the octanol layer were repartitioned until consistent partition coefficient values were obtained. The measurement was repeated 3 times.
# as §1, with “The partition coefficient was measured” for “Partition coefficients were measured”, “mixing the” for “mixing each”, “3 min” for “3 minutes”
# [2] = format: in vivo, Male Sprague-Dawley rats
# Protocol: Male Sprague-Dawley rats (225-300 g) allowed free access to food and water were used for in vivo biodistribution studies. Kung, 1984, supra; Kung, 1985, supra. While under ether anesthesia, 0.2 mL of a saline solution containing 1.19a, 1.19b, 1.20a, 1.20b or 1.21 (50-100 μCi) was injected directly into the femoral vein of rats, and the rats were sacrificed by cardiac excision at various time points post-injection. The organs of interest were removed and weighed, and the radioactivity was counted with an automatic gamma counter (Packard 5000). The percentage dose per organ was calculated by a comparison of the tissue counts to suitably diluted aliquots of the injected material. Total activities of blood and muscle were calculated under the assumption that they were 7% and 40% of the total body weight, respectively.
# (§2) The major criteria for determining the potential usefulness of in vivo dopamine transporter imaging agents are based on an animal biodistribution study. In this case, rats were used as an animal model. After an intravenous injection of the Tc-99m labeled compounds, the values of initial brain uptake (% dose/whole organ) at 2 minutes post intravenous injection are used to measure the ability to penetrate the intact blood-brain barrier. Compounds displaying higher brain uptake are the better agents (minimum requirement >0.1% dose in brain). The second criteria is the specific uptake in the striatum region of the brain, where dopamine transporters are located. The uptake value (% dose/gram) of the striatum (ST) is divided by the background area, cerebellum (CB; essentially devoid of dopamine transporter); the ratio of ST/CB is an indicator for specific uptake (minimum requirement for ST/CB >1.5). Five structurally similar tropane derivatives were examined in this biological study. (Tables 1.1 to 1.4).
# Male Sprague-Dawley rats (225-300 g) that were allowed free access to food and water were used for in vivo biodistribution studies. (Kung, 1984, supra; Kung, 1985, supra). While under halothane anesthesia, 0.2 mL of a saline solution containing 3.24 to 3.34 ([…]) was injected directly into the femoral vein of rats, and they were sacrificed by cardiac excision at various time points post-injection. The organs of interest were removed and weighed, and the radioactivity was counted with an automatic gamma counter (Packard 5000). The percentage dose per organ was calculated by a comparison of the tissue counts to suitably diluted aliquots of the injected material. Total activities of blood and muscle were calculated under the assumption that they were 7% and 40% of the total body weight, respectively.
# dopamine transporters = dopamine transporters (Rattus norvegicus, UniProt P23977); format: in vivo, Male Sprague-Dawley rats; settings: rats, iv
# Protocol: For dopamine transporter imaging agents, the target area of the brain is the striatum, where dopamine transporters are highly concentrated. The cerebellum region is suitable for use as the background region, because it has no dopamine transporters. The specific uptake is measured by the ratio of % dose/gram of striatum divided by % dose/gram of cerebellum (ST/CB ratio)--the higher the value, the better the specific uptake, and the more promising as a dopamine transporter imaging agent.
# (§3) Regional brain distribution in rats was obtained after an injection of 1.19a, 1.19b, 1.20a, 1.20b or 1.21. Samples from different brain regions (cortex, striatum, hippocampus, and cerebellum) were dissected, weighed and counted, and the percentage dose per gram of sample was calculated by comparing the sample counts with the count of the diluted initial dose. The uptake ratio of each region was obtained by dividing the percentage dose per gram of that region by that of the cerebellum. For blocking studies, rats were injected with either β-CIT or haloperidol (iv, 1 mg/Kg) 5 min prior to injection of 1.19a. The rats were dissected and brain tissue samples were counted as described above. The specific uptake of the compound was expressed as ratio of ST/CB (% dose/g of striatum divided by the same of cerebellum).
# as §2
# as §3, with “3.24 to 3.34.” for “1.19a, 1.19b, 1.20a, 1.20b or 1.21.”, “3.25.” for “1.19a.”, “above.” for “above. The specific uptake of the compound was expressed as ratio of ST/CB (% dose/g of striatum divided by the same of cerebellum).”
# [3] = Table 1.2, rats iv, percentage dose per organ
# dopamine transporters, sequence (P23977 whole entry): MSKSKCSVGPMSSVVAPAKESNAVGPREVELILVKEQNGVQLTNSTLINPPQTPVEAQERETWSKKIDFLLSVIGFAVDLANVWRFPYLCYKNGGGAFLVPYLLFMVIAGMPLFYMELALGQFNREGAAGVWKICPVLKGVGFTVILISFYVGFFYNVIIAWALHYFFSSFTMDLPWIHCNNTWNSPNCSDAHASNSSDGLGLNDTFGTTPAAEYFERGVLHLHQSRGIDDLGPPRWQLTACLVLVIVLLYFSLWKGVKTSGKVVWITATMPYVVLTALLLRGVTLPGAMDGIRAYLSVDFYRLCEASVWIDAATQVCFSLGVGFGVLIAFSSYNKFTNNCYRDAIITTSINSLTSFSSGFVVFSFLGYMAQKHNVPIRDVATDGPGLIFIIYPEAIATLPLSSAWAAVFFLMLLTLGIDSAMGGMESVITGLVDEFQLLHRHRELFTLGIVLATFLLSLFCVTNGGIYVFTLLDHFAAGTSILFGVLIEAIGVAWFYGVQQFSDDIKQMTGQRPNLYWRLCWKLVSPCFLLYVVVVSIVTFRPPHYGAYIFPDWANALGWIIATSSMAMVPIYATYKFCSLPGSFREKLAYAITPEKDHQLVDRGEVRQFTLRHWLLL
smiles,measurement,setting,value
CN1[C@H]2CC[C@@H]1[C@@H](C[N+]13CC[S][99Tc-]14(=[O])[S]CC[N]4CC3)[C@@H](c1ccc(Cl)cc1)C2 (stereo partly shown) [Compound 1.19a],"Partition coefficient (P.C.), 1-octanol/pH 7.0 buffer","[1]; 1-octanol/pH 7.0 phosphate buffer, listed as TRODAT-1",227
same,"Biodistribution, Blood, 60 minutes*","[2]; Table 1.2, *unexplained",6.29 ± 1.12
same,"Biodistribution, Brain, 60 minutes*","[2]; Table 1.2, *unexplained",0.12 ± 0.01
same,"Biodistribution, Heart, 60 minutes*","[2]; Table 1.2, *unexplained",0.25 ± 0.05
same,"Biodistribution, Kidney, 60 minutes*","[2]; Table 1.2, *unexplained",1.76 ± 0.32
same,"Biodistribution, Liver, 60 minutes*","[2]; Table 1.2, *unexplained",20.35 ± 0.99
same,"Biodistribution, Lung, 60 minutes*","[2]; Table 1.2, *unexplained",1.76 ± 0.12
same,"Biodistribution, Muscle, 60 minutes*","[2]; Table 1.2, *unexplained",10.37 ± 0.48
same,"Biodistribution, Skin, 60 minutes*","[2]; Table 1.2, *unexplained",4.11 ± 0.29
same,"Biodistribution, Spleen, 60 minutes*","[2]; Table 1.2, *unexplained",0.51 ± 0.06
same,"Biodistribution, Blood, 2 minutes",[2]; [3],4.94 ± 0.46
same,"Biodistribution, Blood, 60 minutes",[2]; [3],2.14 ± 0.17
same,"Biodistribution, Brain, 2 minutes",[2]; [3],0.43 ± 0.16
same,"Biodistribution, Brain, 60 minutes",[2]; [3],0.12 ± 0.00
same,"Biodistribution, Heart, 2 minutes",[2]; [3],1.47 ± 0.16
same,"Biodistribution, Heart, 60 minutes",[2]; [3],0.19 ± 0.02
same,"Biodistribution, Kidney, 2 minutes",[2]; [3],5.13 ± 0.75
same,"Biodistribution, Kidney, 60 minutes",[2]; [3],3.06 ± 0.14
same,"Biodistribution, Liver, 2 minutes",[2]; [3],16.62 ± 2.11
same,"Biodistribution, Liver, 60 minutes",[2]; [3],17.67 ± 3.42
same,"Biodistribution, Lung, 2 minutes",[2]; [3],6.82 ± 0.37
same,"Biodistribution, Lung, 60 minutes",[2]; [3],1.86 ± 0.36
same,"Biodistribution, Muscle, 2 minutes",[2]; [3],10.84 ± 1.95
same,"Biodistribution, Muscle, 60 minutes",[2]; [3],10.28 ± 1.36
same,"Biodistribution, Skin, 2 minutes",[2]; [3],2.66 ± 0.35
same,"Biodistribution, Skin, 60 minutes",[2]; [3],3.96 ± 0.22
same,"Biodistribution, Spleen, 2 minutes",[2]; [3],0.42 ± 0.16
same,"Biodistribution, Spleen, 60 minutes",[2]; [3],0.45 ± 0.05
same,"Brain uptake, 2 min","[2]; rats, iv, 2 min",0.43 ± 0.16 % dose/organ
same,"Brain uptake, 2 min","[2]; rats, iv, 2 min, listed as TRODAT-1",0.425 ± 0.120 % dose/organ
same,"Brain uptake, 30 min","[2]; rats, iv, 30 min",0.232 ± 0.021 % dose/organ
same,"Brain uptake, 60 min","[2]; rats, iv, 60 min",0.12 ± 0.001 % dose/organ and 0.12 ± 0.00 % dose/organ
same,"ST/CB ratio, 2 min",dopamine transporters; 2 min,0.93 ± 0.23
same,"ST/CB ratio, 30 min",dopamine transporters; 30 min,2.04 ± 0.18
same,"ST/CB ratio, 30 min","dopamine transporters; 30 min, listed as TRODAT-1",2.0
same,"ST/CB ratio, 60 min",dopamine transporters; 60 min,2.66 and 2.66 ± 0.01
same,"ST/CB ratio, 120 min",dopamine transporters; 120 min,3.90 ± 1.33
same,"ST/CB ratio, 240 min (4 hours)",dopamine transporters; 240 min,4.07
same,"ST/CB ratio, 360 min",dopamine transporters; 360 min,2.97 ± 0.14
"COC(=O)C1C(c2ccc(Cl)cc2)CC2CCC1N2CC[S][99Tc-]12(=[O])[S]CC[N+]1(C)CC[S]2 [Compound 3.25, [^99m Tc] technetium, [methyl 3-(4-chlorophenyl)-8-(2-mercaptoethyl)-8-azabicyclo [3.2.1]octane-2-carboxylato-S][[2,2'-(methylimino)bis[ethanethiolato]](2-)-N,S,S']oxo]","Partition coefficient / lipophilicity, comparison in words",[1],appears to be the best among this series of three plus one Tc complexes
same,"Partition coefficient, n-octanol/buffer",[1]; n-octanol/phosphate buffer (pH 7.0 or 7.4),307
same,"Brain Uptake (% dose), 2 min","[2]; Table 3.1, rats, iv, 2 min",0.100 ± 0.068 % dose
same,"Brain Uptake (% dose), 30 min","[2]; Table 3.1, rats, iv, 30 min",0.07 ± 0.003 % dose
same,"Biodistribution and washout, in words","[2]; rats, iv","cleared from muscle, while liver accumulation increased with time"
same,"Blood uptake, 2 min","[2]; rats, iv, 2 min",4.72 ± 1.37 % dose/organ
same,"Brain uptake, 2 min","[2]; rats, iv, 2 min",0.10 ± 0.02 % dose/organ
same,"Heart uptake, 2 min","[2]; rats, iv, 2 min",1.46 ± 0.37 % dose/organ
same,"Kidney uptake, 2 min","[2]; rats, iv, 2 min",5.67 ± 0.94 % dose/organ
same,"Liver uptake, 2 min","[2]; rats, iv, 2 min",13.51 ± 0.36 % dose/organ
same,"Lung uptake, 2 min","[2]; rats, iv, 2 min",6.41 ± 2.04 % dose/organ
same,"Muscle uptake, 2 min","[2]; rats, iv, 2 min",23.30 ± 3.82 % dose/organ
same,"Skin uptake, 2 min","[2]; rats, iv, 2 min",2.94 ± 0.36 % dose/organ
same,"Spleen uptake, 2 min","[2]; rats, iv, 2 min",0.36 ± 0.07 % dose/organ
same,"Blood uptake, 30 min","[2]; rats, iv, 30 min",2.75 ± 0.62 % dose/organ
same,"Brain uptake, 30 min","[2]; rats, iv, 30 min",0.06 ± 0.02 % dose/organ
same,"Heart uptake, 30 min","[2]; rats, iv, 30 min",0.30 ± 0.04 % dose/organ
same,"Kidney uptake, 30 min","[2]; rats, iv, 30 min",3.10 ± 0.68 % dose/organ
same,"Liver uptake, 30 min","[2]; rats, iv, 30 min",29.61 ± 2.22 % dose/organ
same,"Lung uptake, 30 min","[2]; rats, iv, 30 min",2.09 ± 0.47 % dose/organ
same,"Muscle uptake, 30 min","[2]; rats, iv, 30 min",16.70 ± 3.62 % dose/organ
same,"Skin uptake, 30 min","[2]; rats, iv, 30 min",4.71 ± 1.27 % dose/organ
same,"Spleen uptake, 30 min","[2]; rats, iv, 30 min",0.61 ± 0.10 % dose/organ
same,"Blood uptake, 60 min","[2]; rats, iv, 60 min",2.83 ± 0.42 % dose/organ
same,"Brain uptake, 60 min","[2]; rats, iv, 60 min",0.046 ± 0.002 % dose/organ
same,"Heart uptake, 60 min","[2]; rats, iv, 60 min",0.22 ± 0.23 % dose/organ
same,"Kidney uptake, 60 min","[2]; rats, iv, 60 min",2.87 ± 0.43 % dose/organ
same,"Liver uptake, 60 min","[2]; rats, iv, 60 min",32.15 ± 3.00 % dose/organ
same,"Lung uptake, 60 min","[2]; rats, iv, 60 min",1.26 ± 0.06 % dose/organ
same,"Muscle uptake, 60 min","[2]; rats, iv, 60 min",13.63 ± 0.99 % dose/organ
same,"Skin uptake, 60 min","[2]; rats, iv, 60 min",4.57 ± 0.65 % dose/organ
same,"Spleen uptake, 60 min","[2]; rats, iv, 60 min",0.50 ± 0.09 % dose/organ
same,"Blood uptake, 120 min","[2]; rats, iv, 120 min",2.31 ± 0.27 % dose/organ
same,"Brain uptake, 120 min","[2]; rats, iv, 120 min",0.025 ± 0.002 % dose/organ
same,"Heart uptake, 120 min","[2]; rats, iv, 120 min",0.12 ± 0.013 % dose/organ
same,"Kidney uptake, 120 min","[2]; rats, iv, 120 min",2.74 ± 0.096 % dose/organ
same,"Liver uptake, 120 min","[2]; rats, iv, 120 min",35.37 ± 1.52 % dose/organ
same,"Lung uptake, 120 min","[2]; rats, iv, 120 min",0.69 ± 0.061 % dose/organ
same,"Muscle uptake, 120 min","[2]; rats, iv, 120 min",4.33 ± 1.20 % dose/organ
same,"Skin uptake, 120 min","[2]; rats, iv, 120 min",2.30 ± 0.082 % dose/organ
same,"Spleen uptake, 120 min","[2]; rats, iv, 120 min",0.58 ± 0.009 % dose/organ
same,"Cerebellum, 2 min",dopamine transporters; 2 min,0.066 ± 0.017 % dose/g
same,"Cortex, 2 min",dopamine transporters; 2 min,0.060 ± 0.009 % dose/g
same,"Hippocampus, 2 min",dopamine transporters; 2 min,0.046 ± 0.005 % dose/g
same,"ST/CB ratio, 2 min",dopamine transporters; 2 min,0.82
same,"Striatum, 2 min",dopamine transporters; 2 min,0.054 ± 0.010 % dose/g
same,"Cerebellum, 30 min",dopamine transporters; 30 min,0.027 ± 0.006 % dose/g
same,"Cortex, 30 min",dopamine transporters; 30 min,0.038 ± 0.007 % dose/g
same,"Hippocampus, 30 min",dopamine transporters; 30 min,0.028 ± 0.008 % dose/g
same,"ST/CB ratio, 30 min",dopamine transporters; 30 min,2.2
same,"Striatum, 30 min",dopamine transporters; 30 min,0.060 ± 0.011 % dose/g
same,"Cerebellum, 60 min",dopamine transporters; 60 min,0.018 ± 0.001 % dose/g
same,"Cortex, 60 min",dopamine transporters; 60 min,0.026 ± 0.002 % dose/g
same,"Hippocampus, 60 min",dopamine transporters; 60 min,0.025 ± 0.003 % dose/g
same,"ST/CB ratio, 60 min",dopamine transporters; 60 min,3.5
same,"Striatum, 60 min",dopamine transporters; 60 min,0.063 ± 0.001 % dose/g
same,"Cerebellum, 120 min",dopamine transporters; 120 min,0.011 % dose/g
same,"Cortex, 120 min",dopamine transporters; 120 min,0.015 % dose/g
same,"Hippocampus, 120 min",dopamine transporters; 120 min,0.011 % dose/g
same,"ST/CB ratio, 120 min",dopamine transporters; 120 min,2.8
same,"Striatum, 120 min",dopamine transporters; 120 min,0.031 % dose/g
